According to BindingDB's records for doi:10.7270/Q2TX3CTT (Broad Institute, 2010):

What follows are compounds tested against Glycogen synthase kinase-3 beta (Homo sapiens, UniProt P49841) (assay: concentration-response blocking of human GSK3B – biochemical, luminescence, cell-free homogeneous, retest, dose response (AID 434954)).
Chain of Glycogen synthase kinase-3 beta (P49841 whole entry): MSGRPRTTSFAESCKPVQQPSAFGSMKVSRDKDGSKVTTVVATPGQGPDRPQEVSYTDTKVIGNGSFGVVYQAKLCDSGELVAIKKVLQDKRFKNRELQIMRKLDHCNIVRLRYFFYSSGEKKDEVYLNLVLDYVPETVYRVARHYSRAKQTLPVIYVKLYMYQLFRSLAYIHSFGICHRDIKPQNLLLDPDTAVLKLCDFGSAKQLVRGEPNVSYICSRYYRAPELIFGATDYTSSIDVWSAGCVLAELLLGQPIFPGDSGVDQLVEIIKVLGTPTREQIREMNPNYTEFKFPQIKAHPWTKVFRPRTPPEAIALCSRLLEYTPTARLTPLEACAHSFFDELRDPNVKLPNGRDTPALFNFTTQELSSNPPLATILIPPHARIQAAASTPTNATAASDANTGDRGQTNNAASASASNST
`COCCn1c(SCC(=O)Nc2nc(C)c(Cl)cc2Cl)nc2ccccc21` [N-[3,5-bis(chloranyl)-6-methyl-pyridin-2-yl]-2-[1-(2-methoxyethyl)benzimidazol-2-yl]sulfanyl-ethanamide] gave an EC50 of over 300 µM. In the case of `O=C(OCCCN1CCCCC1)c1ccc(O)cc1` [3-piperidin-1-ylpropyl 4-hydroxybenzoate], the EC50 is reported as over 300 µM. `COc1ccc(-c2cc(-c3ccco3)nc(O)c2C#N)cc1` [6-(furan-2-yl)-4-(4-methoxyphenyl)-2-oxidanylidene-1H-pyridine-3-carbonitrile] gave an EC50 of over 300 µM. `O=C(O)c1ccc(CN=Nc2ccc(C(F)(F)F)cn2)cc1` was tested, and the EC50 was 20.4 µM. Work on `CC1CCc2c(sc3nn[nH]c(=O)c23)C1` (stereo not given) [SMR000124179] yielded an EC50 of 39 µM. Work on `O=[N+]([O-])c1ccccc1[CH+][N-]n1c(C2CCCCC2)n[nH]c1=S` [5-Cyclohexyl-4-{[1-(2-nitro-phenyl)-meth-(E)-ylidene]-amino}-4H-[1,2,4]triazole-3-thiol] yielded an EC50 of 155 µM. With `Cc1cc(C)n2nc(C(=O)NN=Cc3ccc(O)cc3)nc2n1` [5,7-dimethyl-N'-[(4-oxocyclohexa-2,5-dien-1-ylidene)methyl]-[1,2,4]triazolo[1,5-a]pyrimidine-2-carbohydrazide] the EC50 was 15.4 µM. `O=C1N=C(N2CCc3ccccc3C2)S/C1=C\c1ccc(O)cc1` [MLS001043290] gave an EC50 of over 300 µM. Work on `CCOC(=O)c1ccc(NC(=O)CN(C)S(=O)(=O)c2ccc(Br)s2)cc1` [ethyl 4-[2-[(5-bromanylthiophen-2-yl)sulfonyl-methyl-amino]ethanoylamino]benzoate] yielded an EC50 of over 300 µM. `COc1ccccc1Nc1nc(NCC(C)C)nc(N)c1[N+](=O)[O-]` [SMR000436174] gave an EC50 of 0.888 µM. Work on `CC1CCN(Cc2c(C(=O)NN=Cc3ccccc3O)nnn2-c2nonc2N)CC1` [SMR000620333] yielded an EC50 of 0.7 µM. With `COc1ccc(C)cc1NC(=O)CN(C)S(=O)(=O)c1ccc2c(c1)CC(C)N2C(C)=O` (stereo not given) [MLS001122753] the EC50 was over 300 µM. `Cc1ccccc1-c1nnc(SCc2ccccc2F)o1` [2-[(2-fluorobenzyl)thio]-5-(2-methylphenyl)-1,3,4-oxadiazole] was tested, and the EC50 was over 300 µM. For `O=C(c1cccs1)c1coc2ccc(O)cc12`, the EC50 was 4.73 µM. With `CCCCn1nc(NC(=O)c2cccs2)c2cc3cc(OC)ccc3nc21` [SMR000046614] the EC50 was 9.23 µM. `Cc1ccc(SCC(=O)N2CC(C)OC(C)C2)cc1` (stereo not given) was tested, and the EC50 was over 300 µM. `CCc1ccc(C=NNC(=O)c2nnn(-c3nonc3N)c2CN2CCOCC2)cc1` gave an EC50 of over 300 µM. `CCOC(=O)CSc1ccc2nnc(-c3ccccc3)n2n1` [ethyl 2-[(3-phenyl-[1,2,4]triazolo[4,3-b]pyridazin-6-yl)sulfanyl]acetate] showed an EC50 of 44.6 µM. Work on `COc1ccc(-c2nn(CCC(=O)O)cc2C=NNC(N)=S)cc1` [3-[4-[(carbamothioylhydrazinylidene)methyl]-3-(4-methoxyphenyl)-1-pyrazolyl]propanoic acid] yielded an EC50 of over 300 µM. In the case of `Nc1nonc1-n1nnc(C(=O)NN=Cc2ccoc2)c1CSc1ccccc1` [1-(4-azanyl-1,2,5-oxadiazol-3-yl)-N-(furan-3-ylmethylideneamino)-5-(phenylsulfanylmethyl)-1,2,3-triazole-4-carboxamide], the EC50 is reported as over 300 µM. `CSc1nnnn1-c1c(C)cccc1C` [MLS000861118] was tested, and the EC50 was over 300 µM. Compound `Cc1c([CH+][N-]NC(=O)COc2ccccc2[N+](=O)[O-])c2ccccc2n1C` [N-[(1,2-dimethylindol-3-yl)methylideneamino]-2-(2-nitrophenoxy)acetamide] has an EC50 of over 300 µM. Work on `CC(=O)N1CCc2c(sc(NC(=O)Cc3ccccc3)c2C(N)=O)C1` [MLS000879211] yielded an EC50 of 24.4 µM. `N#Cc1c(Nc2ccccc2)sc(C(=O)c2ccccc2)c1N` [4-azanyl-2-phenylazanyl-5-(phenylcarbonyl)thiophene-3-carbonitrile] gave an EC50 of 52.9 µM. `COc1ccc2c(CC(=O)Nc3ncc(C)s3)coc2c1` [2-(6-methoxy-1-benzofuran-3-yl)-N-(5-methyl-1,3-thiazol-2-yl)ethanamide] was tested, and the EC50 was over 300 µM. With `COc1ccc(OC)c(Nc2nc(NCc3ccco3)nc(N)c2[N+](=O)[O-])c1` [N'-(2,5-Dimethoxy-phenyl)-N-furan-2-ylmethyl-5-nitro-pyrimidine-2,4,6-triamine] the EC50 was over 300 µM. `Cc1nnc2n(-c3ccccc3)c(=O)c3c4c(sc3n12)COC(C)(C)C4` [SMR000038952] was tested, and the EC50 was over 300 µM. For `COc1ccc(C(C)(C)C)cc1NS(=O)(=O)c1cccc2cccnc12`, the EC50 was over 300 µM. `Cc1ccc(C2c3c([nH]c(=S)[nH]c3=O)N=C3CC(C)(C)CC(=O)C32)cc1` (stereo not given) [8,8-dimethyl-5-(4-methylphenyl)-2-sulfanylidene-5,7,9,10-tetrahydro-1H-pyrimido[4,5-b]quinoline-4,6-dione] gave an EC50 of over 300 µM. With `O=C(Nc1ccccc1)ON=C1c2ccccc2-c2ccccc21` [9H-fluoren-9-one O-(anilinocarbonyl)oxime] the EC50 was over 300 µM. Compound `Cc1c(C(=O)NN=Cc2ccccn2)nnn1-c1nonc1N` [1-(4-amino-1,2,5-oxadiazol-3-yl)-5-methyl-N-(pyridin-2-ylmethylideneamino)triazole-4-carboxamide] has an EC50 of over 300 µM. `O=C(NN=Cc1ccco1)Nc1cccc(Cl)c1` [SMR000203570] showed an EC50 of 38.1 µM. Work on `c1ccc2c(c1)OCC(CNCC1COc3ccccc3O1)O2` (stereo not given) [1-(2,3-dihydro-1,4-benzodioxin-3-yl)-N-(2,3-dihydro-1,4-benzodioxin-3-ylmethyl)methanamine] yielded an EC50 of over 300 µM. In the case of `O=C(COc1ccccc1[N+](=O)[O-])NN=Cc1ccccn1` [(2-Nitro-phenoxy)-acetic acid [1-pyridin-2-yl-meth-(E)-ylidene]-hydrazide], the EC50 is reported as over 300 µM. With `O=C(NN=CC1=CC(=O)C(=O)CC1)NN=CC1=CC(=O)C(=O)CC1` [1,3-bis[[(Z)-(3-hydroxy-4-oxocyclohexa-2,5-dien-1-ylidene)methyl]amino]urea] the EC50 was 13.3 µM. `CC1=C(C#N)C(=O)NC(=O)C1=NNc1cccc(C)c1` [(5Z)-4-methyl-5-[(3-methylphenyl)hydrazinylidene]-2,6-bis(oxidanylidene)pyridine-3-carbonitrile] showed an EC50 of 0.775 µM. Work on `CCOc1ccc(CNC(=O)C2CCN(c3nnc(C)c4c(C)n(-c5ccc(C)cc5)nc34)CC2)cc1` [MLS001028751] yielded an EC50 of over 300 µM. For `O=C(NCCc1ccccc1)c1cccc(Br)c1`, the EC50 was over 300 µM. `CCOC(=O)c1c(C)[nH]c(C)c1S(=O)(=O)NCC(=O)Nc1ccccn1` [ethyl 2,5-dimethyl-4-[[2-oxo-2-(pyridin-2-ylamino)ethyl]sulfamoyl]-1H-pyrrole-3-carboxylate] was tested, and the EC50 was over 300 µM. Work on `Cc1ccccc1-c1nnc(SCc2ccc(F)cc2)o1` [2-[(4-fluorophenyl)methylsulfanyl]-5-(2-methylphenyl)-1,3,4-oxadiazole] yielded an EC50 of over 300 µM. Compound `CSc1nc(NCCCN(C)C)c2c3c(sc2n1)CN(C)CC3` [SMR000543143] has an EC50 of over 300 µM. Work on `Oc1cc(SC(=Nc2ccccc2)Nc2ccccc2)c(O)n1-c1cccc2ccccc12` [MLS000558765] yielded an EC50 of over 300 µM. In the case of `Cc1ccc(-c2nnc(SCc3ccccc3F)o2)cc1` [2-[(2-fluorobenzyl)thio]-5-(4-methylphenyl)-1,3,4-oxadiazole], the EC50 is reported as over 300 µM. With `O=C1CCCC2=Nc3nc(SCc4ccccc4)nn3C(c3cccs3)C12` (stereo not given) [2-(phenylmethylthio)-9-thiophen-2-yl-5,6,7,9-tetrahydro-1H-[1,2,4]triazolo[5,1-b]quinazolin-8-one] the EC50 was over 300 µM. Work on `CN(C)Cc1c(O)ccc2occ(C(=O)c3ccccc3)c12` [SMR000069709] yielded an EC50 of over 300 µM. Compound `Cc1cccc(Nc2nc(N)c([N+](=O)[O-])c(N3CCOCC3)n2)c1` [6-Morpholin-4-yl-5-nitro-N*2*-m-tolyl-pyrimidine-2,4-diamine] has an EC50 of over 300 µM. `O=C(Nc1ccsc1C(=O)NC1CC1)c1ccccc1` [MLS000546913] showed an EC50 of 9.98 µM. `NC(=S)NN=Cc1cn(CCC(=O)O)nc1-c1cccc(Br)c1` [3-[3-(3-bromophenyl)-4-[(carbamothioylhydrazinylidene)methyl]-1-pyrazolyl]propanoic acid] gave an EC50 of over 300 µM. `O=C(CN(Cc1cccs1)C(=O)CCC(=O)Nc1nccs1)NCc1ccccc1` [MLS000551058] showed an EC50 of over 300 µM. `CCOC(=O)C(C(=O)Nc1ccc(Cl)cc1Cl)C1=NC(C)(C)Cc2ccccc21` (stereo not given) showed an EC50 of over 300 µM. In the case of `CCc1c(C(=O)Nc2ccccc2C(N)=O)csc1C` [SMR000679541], the EC50 is reported as over 300 µM. `Cc1ccc(C(=O)/C=C/c2ccc3ncccc3c2)cc1` [SMR000516943] gave an EC50 of over 300 µM. With `N#CCCN1CCCc2cc(/N=N/c3ccc(C(F)(F)F)cc3)ccc21` the EC50 was over 300 µM. With `O=C(NC(=O)c1ccccc1)Nc1ccccn1` [N-(pyridin-2-ylcarbamoyl)benzamide] the EC50 was 51.2 µM. `CC(C)=CCc1c(O)ccc2c1OC(c1ccc(O)c(O)c1)CC2=O` (stereo not given) [2-(3,4-dihydroxyphenyl)-7-hydroxy-8-(3-methylbut-2-enyl)-2,3-dihydrochromen-4-one] gave an EC50 of 4.58 µM. Work on `O=C(Nc1ccccc1)Nc1ncc([N+](=O)[O-])s1` [MLS001018461] yielded an EC50 of 27 µM. Work on `CC[n+]1c(/C=C/C=C/c2ccc(N(C)C)cc2)sc2ccccc21` [SMR000420206] yielded an EC50 of 35.1 µM. Work on `COc1ccc(-c2nn(-c3ccccc3)cc2C=NNS(=O)(=O)c2ccccc2)cc1` yielded an EC50 of over 300 µM. `CC(N=Nc1nccnc1Cl)c1ccc(Br)cc1` (stereo not given) [N-[1-(4-bromophenyl)ethylideneamino]-3-chloranyl-pyrazin-2-amine] was tested, and the EC50 was over 300 µM. Compound `O=C(NCCCN1CCCC1=O)c1ccc2c(c1)NC(=O)c1ccccc1S2` [MLS000522698] has an EC50 of over 300 µM. Compound `COc1cccc(C(=O)C(C#N)=C(SC)SC)c1` [MLS000859112] has an EC50 of over 300 µM. With `Cc1nc(Nc2ccc(S(N)(=O)=O)cc2)sc1C(=O)Nc1ccccc1` [4-methyl-N-phenyl-2-(4-sulfamoylanilino)-5-thiazolecarboxamide] the EC50 was over 300 µM. `CN(c1ncnc(N)c1[N+](=O)[O-])C1CCS(=O)(=O)C1` (stereo not given) [SMR000347974] gave an EC50 of 28.2 µM. Work on `CC(C)[C@H](CO)Nc1nc(NCc2ccc(S(N)(=O)=O)cc2)c2ncn(C(C)C)c2n1` [4-[[[2-[[(2R)-1-hydroxy-3-methylbutan-2-yl]amino]-9-propan-2-yl-6-purinyl]amino]methyl]benzenesulfonamide] yielded an EC50 of 39.6 µM. Work on `CCOc1cc(C)cc2oc(=O)cc(-c3ccccc3)c12` [SMR000116517] yielded an EC50 of over 300 µM.
